This passage reports MIC results from US5112967A, “Process for synthesizing antibacterial cephalosporin compounds” (Hoffmann-La Roches Inc., priority 1990, dated 1992).

Holding throughout (type): cell-based
Experiment [1] concerns P. aeruginosa Stone 130. The experiment can be described thus: Broth Dilution Method MIC. The conditions noted are these: Pseudomonas aeruginosa, STONE130, In Vitro. The text has this: (§1) Compounds of the formula I and Ia, including their active geometric and/or optical isomers, their salts and esters and hydrates of those compounds can be used as agents to combat bacterial infections (including urinary tract infections and respiratory infections) in mammalian species, e.g., dogs, cats, horses, etc., and humans. […]. The […] activity of selected compounds of formulas I and Ia as measured by the Minimum Inhibitory Concentration in micrograms/ml utilizing the Agar Well Diffusion Method, Agar Dilution Method or Broth Dilution Method against a variety of Gram-positive and Gram-negative organisms, is as follows:
(§2) In Vitro MIC (ug/ml) Broth Dilution Method

Another experiment deals with P. aeruginosa ATCC 27853. The experiment can be described thus: Broth Dilution Method MIC. The conditions noted are these: Pseudomonas aeruginosa, ATCC27853, In Vitro.
From the text: as §1, §2

For another experiment, the system named is P. aeruginosa K77/61. The experiment can be described thus: Broth Dilution Method MIC. The conditions noted are these: Pseudomonas aeruginosa.
From the text: as §1, §2
(Dilution methods test growth across graded concentrations, often in twofold steps.)

Another experiment has as its system P. aeruginosa 765. Put plainly: Broth Dilution Method MIC. The conditions noted are these: Pseudomonas aeruginosa, In Vitro.
From the text: as §1, §2

In a further experiment the test system is P. aeruginosa 6148B. The experiment can be described thus: Broth Dilution Method MIC. The conditions noted are these: Pseudomonas aeruginosa, In Vitro.
From the text: as §1, §2

In another experiment the test system is P. aeruginosa 1973E. Put plainly: Broth Dilution Method MIC. The conditions noted are these: Pseudomonas aeruginosa, In Vitro.
From the text: as §1, §2

The subject of another experiment is P. aeruginosa 5700. The experiment can be described thus: Broth Dilution Method MIC. The conditions noted are these: Pseudomonas aeruginosa, In Vitro.
From the text: as §1, §2

The test system of the next experiment is P. aeruginosa 8780. The experiment can be described thus: Broth Dilution Method MIC. The conditions noted are these: Pseudomonas aeruginosa, In Vitro.
From the text: as §1, §2

Experiment [2] concerns P. aeruginosa 185/H. The experiment can be described thus: Broth Dilution Method MIC. The conditions noted are these: Pseudomonas aeruginosa, In Vitro.
From the text: as §1, §2

For a further experiment, the system named is P. aeruginosa K77/WT. The experiment can be described thus: Broth Dilution Method MIC. The conditions noted are these: Pseudomonas aeruginosa, In Vitro.
From the text: as §1, §2

A further experiment deals with P. aeruginosa 503-56. The experiment can be described thus: Broth Dilution Method MIC. The conditions noted are these: Pseudomonas aeruginosa, 50356, In Vitro.
From the text: as §1, §2

The test system of another experiment is P. aeruginosa 8710. Put plainly: Broth Dilution Method MIC. The conditions noted are these: Pseudomonas aeruginosa.
From the text: as §1, §2

For a further experiment, the system named is P. aeruginosa B. The experiment can be described thus: Broth Dilution Method MIC. The conditions noted are these: Pseudomonas aeruginosa.
From the text: as §1, §2

Experiment [3] concerns P. aeruginosa Stone 130. Put plainly: Agar Dilution Method MIC. The conditions noted are these: Pseudomonas aeruginosa, STONE130, In Vitro.
From the text: as §1
(§3) In Vitro MIC (ug/ml) Agar Dilution Method
On the technique in general: In agar dilution, organisms are placed on agar that contains the substance at set levels.

Another experiment deals with E. cloacae 9570A. Put plainly: Agar Dilution Method MIC. The conditions noted are these: Enterobacter cloacae, In Vitro.
From the text: as §1, §3

The test system of another experiment is P. aeruginosa 130. Put plainly: Agar Dilution Method MIC. The conditions noted are these: Pseudomonas aeruginosa, In Vitro.
From the text: as §1, §3

The next experiment relates to S. marscescens SM. Put plainly: Agar Dilution Method MIC. The conditions noted are these: In Vitro.
From the text: as §1, §3

Another experiment concerns S. aureus 1059B. Put plainly: Agar Dilution Method MIC. The conditions noted are these: Staphylococcus aureus, In Vitro.
From the text: as §1, §3

The next experiment concerns S. aureus 95. Put plainly: Agar Dilution Method MIC. The conditions noted are these: Staphylococcus aureus, In Vitro.
From the text: as §1, §3

The subject of experiment [4] is P. aeruginosa 185/H. Put plainly: Agar Dilution Method MIC. The conditions noted are these: Pseudomonas aeruginosa, In Vitro.
From the text: as §1, §3

The subject of a further experiment is S. aureus Giorgid. The experiment can be described thus: Agar Dilution Method MIC. The conditions noted are these: Staphylococcus aureus, In Vitro.
From the text: as §1, §3

The subject of a further experiment is P. mirabilis 190. Put plainly: Agar Dilution Method MIC. The conditions noted are these: Proteus mirabilis, In Vitro.
From the text: as §1, §3

The test system of another experiment is S. aureus ATCC 25923. The experiment can be described thus: Agar Dilution Method MIC. The conditions noted are these: Staphylococcus aureus, ATCC25923, In Vitro.
From the text: as §1, §3

The next experiment has as its system E. cloacae P99. The experiment can be described thus: Agar Dilution Method MIC. The conditions noted are these: Enterobacter cloacae.
From the text: as §1, §3

The test system of a further experiment is S. aureus Smith. The experiment can be described thus: Agar Dilution Method MIC. The conditions noted are these: Staphylococcus aureus, In Vitro.
From the text: as §1, §3

A further experiment concerns P. vulgaris ATCC 6380. The experiment can be described thus: Agar Dilution Method MIC. The conditions noted are these: Proteus vulgaris, ATCC6380, In Vitro.
From the text: as §1, §3

Where [5] appears, read: In Vitro, Broth Dilution, P. aeruginosa B, read-out: MIC.

A word on the MIC: it is the smallest concentration in the dilution series that meets the test's criterion for growth inhibition.

SMILES strings stand for the structures. Where a name gives a salt, the structure may show the parent alone. Read-outs that look alike come from different tables or passages of the source.

For `CON=C(C(=O)NC1C(=O)N2C(C(=O)O)=C(COC(=O)c3ccc(O)c(O)c3)CSC12)c1csc(N)n1` (stereo not drawn) [Compound A, [6R-[6 alpha,7 beta(Z)]]-7-[[2-amino-4-thiazolyl)(methoxyimino)acetyl]amino]-3-[[[(3,4-dihydroxyphenyl)carbonyl]oxy]methyl]-8-oxo-5-thia-1-azabicyclo[4.2.0]oct-2-ene-2-carboxylic acid monosodium salt], the MIC with P. aeruginosa Stone 130 [1] came to 2 µg/mL; against P. aeruginosa ATCC 27853, 8 µg/mL; in the experiment with P. aeruginosa K77/61, 0.25 µg/mL; against P. aeruginosa 765, 4 µg/mL; in the experiment on P. aeruginosa 6148B it was 2 µg/mL; against P. aeruginosa 1973E, 4 µg/mL. The MIC against P. aeruginosa 5700 was 8 µg/mL; in the experiment on P. aeruginosa 8780, 0.5 µg/mL; with P. aeruginosa 185/H [2], 0.016 µg/mL; with P. aeruginosa K77/WT it was 1 µg/mL; in the experiment on P. aeruginosa 503-56, 4 µg/mL; in the experiment with P. aeruginosa 8710 (In Vitro, Broth Dilution, P. aeruginosa 8710, read-out: MIC), 2 µg/mL. The minimal inhibitory concentration (MIC) in the experiment with P. aeruginosa B (setting [5]) turned out to be 2 µg/mL.

With `CC(=O)Oc1ccc(C(=O)OCC2=C(C(=O)O)N3C(=O)C(NC(=O)C(=NOCC(N)=O)c4csc(N)n4)C3SC2)cc1OC(C)=O` (stereo not drawn) [Compound B, [6R-[alpha,7 beta(Z)]]-3-[[[3,4-bis(acetyloxy)benzoyl]oxy]methyl]-7-[[[2-amino-4-thiazolyl][(2-amino-2-oxoethoxy)imino]acetyl]amino]-8-oxo-5-thia-1-azabicyclo[4.2.0]oct-2-ene-2-carboxylic acid monosodium salt], the MIC in the experiment on P. aeruginosa Stone 130 [3] was found to be 4 µg/mL; in the experiment on E. cloacae 9570A it was 1 µg/mL; against P. aeruginosa 130 it was 4 µg/mL; with S. marscescens SM, 1 µg/mL; in the experiment on S. aureus 1059B, 4 µg/mL; against S. aureus 95, 64 µg/mL. Also, the MIC with P. aeruginosa 185/H [4] is 2 µg/mL; in the experiment on S. aureus Giorgid, 8 µg/mL; with P. mirabilis 190, 0.063 µg/mL; against S. aureus ATCC 25923, 2 µg/mL; with E. cloacae P99, 32 µg/mL; with S. aureus Smith, 4 µg/mL. For the same molecule, the MIC with P. vulgaris ATCC 6380 came out at 0.016 µg/mL.

With `CC(C)(ON=C(C(=O)NC1C(=O)N2C(C(=O)O)=C(COC(=O)c3ccc(O)c(O)c3)CSC12)c1csc(N)n1)C(=O)O` (stereo not drawn) [Compound C, [6R-[6 alpha,7 beta(Z)]]-7-[[(2-amino-4-thiazolyl)(1-carboxy-1-methylethoxy)imino]acetyl]amino]-3-[[3,4-dihydroxybenzoyl)oxy]methyl]-8-oxo-5-thia-1-azabicyclo[4.2.0]oct-2-ene-2-carboxylicacid disodium salt], the MIC against P. aeruginosa Stone 130 [1] is 0.125 µg/mL; in the experiment with P. aeruginosa ATCC 27853, 32 µg/mL; against P. aeruginosa K77/61, more than 0.008 µg/mL; against P. aeruginosa 765, 8 µg/mL; in the experiment on P. aeruginosa 6148B, 0.031 µg/mL; in the experiment on P. aeruginosa 1973E it was 2 µg/mL. The MIC is 2 µg/mL in the experiment with P. aeruginosa 5700; more than 0.008 µg/mL against P. aeruginosa 8780; 0.031 µg/mL in the experiment on P. aeruginosa 185/H [2]; 0.63 µg/mL against P. aeruginosa K77/WT; 0.25 µg/mL in the experiment with P. aeruginosa 503-56; 0.063 µg/mL in the experiment with P. aeruginosa 8710 (8710). Also, in the experiment on P. aeruginosa B, the MIC amounted to 0.125 µg/mL.

`CCN1CCN(C(=O)N[C@@H](C(=O)N[C@@H]2C(=O)N3C(C(=O)O)=C(COC(=O)c4ccc(O)c(O)c4)CS[C@H]23)c2ccccc2)C(=O)C1=O` [Compound D, [6R-[6 alpha,7 beta(R*)]]-7-[[[[(4-ethyl-2,4-dioxo-1-piperazinyl)carbonyl]amino]phenyl-acetyl]amino-3-[[(3,4-dihydroxy)benzoyl]oxy]-methyl]-8-oxo-5-thia-1-azabicyclo[4.2.0.]-oct-2-ene-2-carboxylic acid monosodium salt]: the MIC with P. aeruginosa Stone 130 [1] came out at 0.5 µg/mL; with P. aeruginosa ATCC 27853, 0.5 µg/mL; against P. aeruginosa K77/61, 0.016 µg/mL; in the experiment with P. aeruginosa 765, 128 µg/mL; in the experiment on P. aeruginosa 6148B, 0.125 µg/mL; against P. aeruginosa 1973E, 4 µg/mL. Further, the MIC is 4 µg/mL with P. aeruginosa 5700; 0.016 µg/mL against P. aeruginosa 8780; 0.125 µg/mL with P. aeruginosa 185/H [2]; 0.25 µg/mL with P. aeruginosa K77/WT; 4 µg/mL against P. aeruginosa 503-56; 0.125 µg/mL with P. aeruginosa 8710 (8710). Besides, the MIC in the experiment on P. aeruginosa B (setting [5]) came to 0.25 µg/mL.
